The record followed here is ChEMBL document CHEMBL1268831, “Indole alkaloids from Ervatamia hainanensis with potent acetylcholinesterase inhibition activities” (Bioorg Med Chem Lett, 2010).

Acetylcholinesterase, sequence (O42275 whole entry): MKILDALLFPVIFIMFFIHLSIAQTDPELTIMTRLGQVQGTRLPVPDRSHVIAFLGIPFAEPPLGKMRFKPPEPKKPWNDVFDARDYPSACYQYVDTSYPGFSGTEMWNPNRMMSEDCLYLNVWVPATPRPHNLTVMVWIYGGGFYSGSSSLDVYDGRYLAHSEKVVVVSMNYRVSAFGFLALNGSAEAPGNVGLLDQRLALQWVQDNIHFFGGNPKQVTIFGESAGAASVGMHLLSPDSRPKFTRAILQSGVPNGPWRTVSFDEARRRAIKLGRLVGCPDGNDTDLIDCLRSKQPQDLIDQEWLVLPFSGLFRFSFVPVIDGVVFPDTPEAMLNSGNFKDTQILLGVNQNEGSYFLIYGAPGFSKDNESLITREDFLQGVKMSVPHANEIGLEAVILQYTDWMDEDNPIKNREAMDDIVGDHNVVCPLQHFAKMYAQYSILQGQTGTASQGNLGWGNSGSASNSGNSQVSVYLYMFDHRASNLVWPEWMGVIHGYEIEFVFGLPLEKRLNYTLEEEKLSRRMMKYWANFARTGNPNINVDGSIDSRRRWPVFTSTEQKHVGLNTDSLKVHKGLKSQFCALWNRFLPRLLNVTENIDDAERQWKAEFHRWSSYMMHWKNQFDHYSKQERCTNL

This assay has as its target Acetylcholinesterase (Electrophorus electricus, UniProt O42275). The assay is described as follows: Inhibition of electric eel AChE by Ellman's method.
Regarding `CC[C@H]1C[C@@H]2CN3CCc4c([nH]c5ccc(O)cc45)[C@](C(=O)OC)(C2)[C@H]13`, 29 µM corresponded to half-maximal inhibition (IC50).

In the case of `COC(=O)[C@@]12C[C@@H]3C[C@H]([C@@H](C)O)[C@@H]1N(CCc1c2[nH]c2ccc(OC)cc12)C3` [19(R)-HEYNEANINE], half-maximal inhibition (IC50) was put at 730 µM.

`CC[C@H]1C[C@@H]2CN3CC[C@]4(O)C(=Nc5ccccc54)[C@](C(=O)OC)(C2)[C@H]13` [CORONARIDINE HYDROXYINDOLENINE] yielded an IC50 of more than 1000 µM.

The molecule `CC[C@H]1C[C@@H]2CN3CCc4c([nH]c5ccccc45)[C@](C(=O)OC)(C2)[C@H]13` [CORONARIDINE] came in with an IC50 of 8.6 µM.

In turn, `COC(=O)[C@@]12C[C@@H]3C[C@H]([C@H](C)O)[C@@H]1N(CC[C@]1(O)C2=Nc2ccccc21)C3` [HEYNEANINE HYDROXYINDOLENINE] registered an IC50 of more than 1000 µM.

`CC[C@H]1C[C@@H]2CN3CCc4c([nH]c5ccc(OC)cc45)[C@](C(=O)OC)(C2)[C@H]13` [VOACANGINE] came in with an IC50 of 4.4 µM.

Take `COC(=O)[C@@]12C[C@@H]3C[C@H]([C@H](C)O)[C@@H]1N(CCc1c2[nH]c2ccc(OC)cc12)C3` [VOACRISTINE]: the IC50 came out at 420 µM.

`C/C=C1/CN(C)[C@H]2Cc3c([nH]c4ccccc34)C(=O)C[C@H]1[C@@H]2C(=O)OC` [VOBASINE] had an IC50 of more than 1000 µM.
